Reference: patent publication US9636418B2 (priority 2013, dated 2017)
Values joined by “and” are separate entries in the source; they are usually repeats but may differ in a detail not shown here. Equal entries are not always repeated. “Also recorded” adds a separate entry of the source. Where two headings read alike, the source gives them in different places.

Legend:
hNav1.7 = hNav1.7 (Homo sapiens, UniProt Q15858); assay: cell-based; format: cell-based; conditions: values quoted in text (average); read-out: hNav1.7 IC50 in the PX format
Sequence of hNav1.7 (Q15858 whole entry): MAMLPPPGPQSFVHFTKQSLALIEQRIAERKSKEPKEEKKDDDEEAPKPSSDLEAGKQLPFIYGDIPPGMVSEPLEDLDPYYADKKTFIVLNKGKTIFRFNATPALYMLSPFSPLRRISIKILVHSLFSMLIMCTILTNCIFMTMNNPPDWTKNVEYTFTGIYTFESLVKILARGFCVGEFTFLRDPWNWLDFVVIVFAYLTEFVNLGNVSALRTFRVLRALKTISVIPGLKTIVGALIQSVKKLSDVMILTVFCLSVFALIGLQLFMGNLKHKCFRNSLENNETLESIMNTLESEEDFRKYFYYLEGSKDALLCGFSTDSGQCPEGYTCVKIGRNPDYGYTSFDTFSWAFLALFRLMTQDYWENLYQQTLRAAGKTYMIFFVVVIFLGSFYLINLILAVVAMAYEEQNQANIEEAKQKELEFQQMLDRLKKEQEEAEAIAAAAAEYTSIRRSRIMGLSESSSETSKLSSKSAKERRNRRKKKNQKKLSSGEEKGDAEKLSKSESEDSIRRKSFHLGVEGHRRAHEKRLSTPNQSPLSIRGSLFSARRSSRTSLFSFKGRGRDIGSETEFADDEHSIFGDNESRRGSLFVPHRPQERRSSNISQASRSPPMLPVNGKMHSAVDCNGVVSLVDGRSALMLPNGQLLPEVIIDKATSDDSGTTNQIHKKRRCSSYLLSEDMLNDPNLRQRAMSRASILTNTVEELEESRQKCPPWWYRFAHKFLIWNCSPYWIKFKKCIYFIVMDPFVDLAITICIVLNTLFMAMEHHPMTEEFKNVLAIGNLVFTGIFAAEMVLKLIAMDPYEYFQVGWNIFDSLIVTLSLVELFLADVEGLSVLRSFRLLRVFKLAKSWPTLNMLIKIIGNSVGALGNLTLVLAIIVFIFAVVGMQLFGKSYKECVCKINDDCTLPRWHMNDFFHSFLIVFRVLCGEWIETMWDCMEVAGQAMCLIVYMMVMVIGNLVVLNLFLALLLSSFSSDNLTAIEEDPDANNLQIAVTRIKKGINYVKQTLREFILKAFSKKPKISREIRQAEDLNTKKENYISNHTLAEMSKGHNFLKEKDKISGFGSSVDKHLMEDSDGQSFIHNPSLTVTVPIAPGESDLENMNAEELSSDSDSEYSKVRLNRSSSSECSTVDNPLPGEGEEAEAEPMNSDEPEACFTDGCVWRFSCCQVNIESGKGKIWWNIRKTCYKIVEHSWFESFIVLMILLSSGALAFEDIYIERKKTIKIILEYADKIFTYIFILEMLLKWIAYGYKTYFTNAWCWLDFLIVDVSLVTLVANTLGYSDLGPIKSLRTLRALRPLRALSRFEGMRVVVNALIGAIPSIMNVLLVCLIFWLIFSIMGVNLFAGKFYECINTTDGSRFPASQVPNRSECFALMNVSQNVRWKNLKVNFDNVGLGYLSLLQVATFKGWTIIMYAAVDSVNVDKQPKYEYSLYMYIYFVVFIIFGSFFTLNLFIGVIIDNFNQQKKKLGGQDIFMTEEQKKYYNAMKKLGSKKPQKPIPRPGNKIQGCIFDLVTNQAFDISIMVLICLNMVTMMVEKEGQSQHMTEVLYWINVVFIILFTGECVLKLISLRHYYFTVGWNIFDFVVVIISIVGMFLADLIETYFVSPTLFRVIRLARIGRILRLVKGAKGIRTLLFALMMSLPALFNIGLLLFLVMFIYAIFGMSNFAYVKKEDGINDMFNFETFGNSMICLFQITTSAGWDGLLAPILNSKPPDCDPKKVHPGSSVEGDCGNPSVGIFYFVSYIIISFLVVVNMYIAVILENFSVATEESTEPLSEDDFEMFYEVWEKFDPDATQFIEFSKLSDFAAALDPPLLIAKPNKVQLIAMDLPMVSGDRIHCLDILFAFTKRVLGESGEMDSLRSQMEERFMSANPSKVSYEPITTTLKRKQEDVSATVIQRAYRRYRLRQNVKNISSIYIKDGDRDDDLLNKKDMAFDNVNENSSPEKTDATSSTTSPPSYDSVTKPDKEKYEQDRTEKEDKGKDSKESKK

male Sprague-Dawley rats [1] = format: in vivo, rat
male CD-1 mice [2] = conditions: mouse, in vivo
[3] = 1 mg/kg s.c.
[4] = test system: TTX-sensitive Nav channels in mouse DRG neuron; format: cell-based
[5] = cyno plasma, 37° C., incubation 0 hr
male CD-1 mice [6] = conditions: for terminal exposure (plasma): 2 h post peptide injection
in vitro [7] = conditions: human, plasma
male Sprague-Dawley rats [8] = conditions: 5.0 mg/kg s.c., 2 h post peptide injection
in vitro [9] = conditions: monkey, plasma
in vivo = conditions: CD-1, mouse, sc, 1 mg/kg
[10] = human plasma, 37° C., incubation 0 hr
male CD-1 mice [11] = conditions: mouse, in vivo; remark: listed apart in the source
[12] = 0.1, 0.3 or 1.0 mg/kg s.c., 1-hour pre-treatment

## CC[C@H](C)[C@H](NC(=O)[C@H](CCCCN)NC(=O)[C@H](CCCNC(=N)N)NC(=O)[C@@H]1CSSC[C@@H]2NC(=O)[C@H](C)NC(=O)[C@H](CCCNC(=N)N)NC(=O)[C@H](CCCCN)NC(=O)[C@H](CO)NC(=O)[C@H](CC(=O)O)NC(=O)[C@@H]3CSSC[C@H](NC(=O)[C@H](CCC(=O)O)NC(=O)[C@H](CC(C)C)NC(=O)CNC(=O)[C@H](CCC(=O)O)NC(=O)[C@H](CSSC[C@H](NC(=O)[C@@H](N)Cc4ccc(O)cc4)C(=O)N[C@@H](CCC(N)=O)C(=O)N[C@@H](CCCCN)C(=O)N[C@@H](Cc4c[nH]c5ccccc45)C(=O)N[C@@H](CCSC)C(=O)N[C@@H](Cc4c[nH]c5ccccc45)C(=O)N[C@@H]([C@@H](C)O)C(=O)N3)NC2=O)C(=O)N[C@@H](CCCCN)C(=O)N[C@@H](CC(C)C)C(=O)N[C@@H](Cc2c[nH]c3ccccc23)C(=O)N1)C(=O)N[C@@H](Cc1c[nH]c2ccccc12)C(N)=O [SEQ ID NO: 112, [Glu20;Trp29]JzTx-V(1-29)]
hNav1.7
  IC50: 1.5 nM
Male Sprague-Dawley rats [1]; peptide 5.0 mg/kg s.c. 1-h pre-treatment, vs vehicle (PBS)
  formalin response, first or acute phase (0-5 min): no effect
Male Sprague-Dawley rats [1]; rat, in vivo
  formalin response, second phase (5-40 min): did not decrease and may have actually increased; also recorded: may have actually increased the pain response
Male CD-1 mice [2]
  thermal latency / thermal hyperalgesia: no effect
[3]; CD-1 mice
  plasma concentration over the in vitro hNav1.7 IC50 by PX: 26 fold
[3]; mice
  time with measurable plasma concentrations: 4 h
  tolerability: tolerated
[4]
  block of TTX-sensitive Nav current: only blocked around half of TTX-sensitive Nav current; also recorded: only partially blocked TTX-sensitive Nav current; also recorded: only partial inhibition
[4]; TTX-sensitive current, mouse DRG neurons
  loss in potency relative to the human clone of Nav1.7: ~1000 fold
[5]
  % Peptide Remaining: 100%
Male CD-1 mice [6]; 0.1 mg/kg s.c.
  terminal exposure (plasma): 0.0248 ± 0.00668 µM
Male CD-1 mice [6]; 0.3 mg/kg s.c.
  terminal exposure (plasma): 0.121 ± 0.0296 µM
Male CD-1 mice [6]; 1.0 mg/kg s.c.
  terminal exposure (plasma): 0.419 ± 0.226 µM
Male CD-1 mice [6]; 5.0 mg/kg s.c.
  terminal exposure (plasma): 4.73 ± 0.584 µM
Male CD-1 mice [6]; [12]
  total fine movement: no effect
  total time rearing: no effect
In vitro [7]
  remaining at 2 h: 95%
  remaining at 4 h: 84%
  remaining at 6 h: 75%
  remaining at 8 h: 71%
  remaining at 24 h: 48%
Male Sprague-Dawley rats [8]
  terminal exposure (plasma): 0.994 ± 0.184 µM
In vitro [9]
  remaining at 2 h: 93%
  remaining at 4 h: 91%
  remaining at 6 h: 90%
  remaining at 8 h: 91%
  remaining at 24 h: 89%
In vivo
  half-life: ~2.08 h
[10]
  % Peptide Remaining: 100%
Male CD-1 mice [11]
  time spent lifting and/or licking the affected paw, first phase (0-5 min): no effect and Neither the peptide nor the morphine positive control significantly reduced and 1 mg/kg dose of peptide may have slightly increased the pain response
  time spent lifting and/or licking the affected paw, second phase (5-40 min): no effect; also recorded: but not the peptide significantly reduced
